Our source for the EC50 values is patent publication US8633200B2, “Inhibitors of human immunodeficiency virus replication” (priority 2010, dated 2014).

pEC50: −log10 of the molar value. Counter-ions that a name gives are not always drawn. Some results are limits rather than exact numbers.

In general, EC50 refers to the concentration that produces a half-maximal response.

In one assay the test system is recombinant NL-Rluc virus (NL4-3 with Renilla Luciferase gene) in MT-2 cells. Description: Inhibition of HIV replication (NL-Rluc luciferase reporter virus, MT-2 cells). The format is cell-based, human immunodeficiency virus (HIV). The note with it: NL43, 120 h, read-out: Activity. In general terms: Reporter assays use an easily measured gene product as a stand-in for the process of interest.
In the case of `Cc1nc2cc(-c3ccccc3)nn2c(-c2ccc(C(C)C)cc2)c1C(OC(C)(C)C)C(=O)O` (centres unmarked) [Example 57], the pEC50 is below 6.00.
Still for that read-out and setting: the value for `CSc1ccc(-c2c(C(OC(C)(C)C)C(=O)O)c(C)nc3cc(-c4ccccc4)nn23)cc1` (centres unmarked) [Example 58] was below 6.00.
Same read-out and setting: the value for `Cc1cc(-c2c(C(OC(C)(C)C)C(=O)O)c(C)nc3cc(-c4ccccc4)nn23)ccc1F` (centres unmarked) [Example 59] was below 6.00.
With `Cc1cc(F)ccc1-c1c(C(OC(C)(C)C)C(=O)O)c(C)nc2cc(-c3ccccc3)nn12` (centres unmarked) [Example 60], the pEC50 was below 6.00.
Still for that read-out and setting: to `Cc1ccc(-c2c(C(OC(C)(C)C)C(=O)O)c(C)nc3cc(-c4ccccc4)nn23)cc1F` (centres unmarked) [Example 61] belongs below 6.00; to `Cc1ccc(F)c(-c2c(C(OC(C)(C)C)C(=O)O)c(C)nc3cc(-c4ccccc4)nn23)c1` (centres unmarked) [Example 62], below 6.00.
Still for that read-out and setting: the value for `COc1ccc(-c2c(C(OC(C)(C)C)C(=O)O)c(C)nc3cc(-c4ccccc4)nn23)c(F)c1` (centres unmarked) [Example 63] was below 6.00.
Still for that read-out and setting: the value for `Cc1nc2cc(-c3ccccc3)nn2c(-c2cc3ccccc3o2)c1C(OC(C)(C)C)C(=O)O` (centres unmarked) [Example 64] was below 6.00.
Consider `Cc1nc2cc(-c3ccccc3)nn2c(-c2ccc3c4c(cccc24)CC3)c1C(OC(C)(C)C)C(=O)O` (centres unmarked) [Example 65], for which the pEC50 was below 6.00.
`Cc1nc2cc(-c3ccccc3)nn2c(-c2ccc(C(C)(C)C)cc2)c1C(OC(C)(C)C)C(=O)O` (centres unmarked) [Example 66]: the pEC50 is below 6.00.
The same measure, in the same setting: the value for `Cc1nc2cc(-c3ccccc3)nn2c(-c2cc3ccccc3s2)c1C(OC(C)(C)C)C(=O)O` (centres unmarked) [Example 67] was below 6.00; that for `Cc1nc2cc(-c3ccccc3)nn2c(-c2csc3ccccc23)c1C(OC(C)(C)C)C(=O)O` (centres unmarked) [Example 68] was below 6.00; that for `Cc1nc2cc(-c3ccccc3)nn2c(-c2cccc3cccnc23)c1C(OC(C)(C)C)C(=O)O` (centres unmarked) [Example 69] was below 6.00.
On the same count and under the same terms, to `Cc1nc2cc(-c3ccccc3)nn2c(-c2ccc3[nH]ccc3c2)c1C(OC(C)(C)C)C(=O)O` (centres unmarked) [Example 70] belongs below 6.00.
Turning to `Cc1nc2cc(-c3ccccc3)nn2c(-c2cccc3ncccc23)c1C(OC(C)(C)C)C(=O)O` (centres unmarked) [Example 71], the pEC50 was below 6.00.
The same measure, in the same setting: to `Cc1nc2cc(-c3ccccc3)nn2c(-c2cccc3[nH]ccc23)c1C(OC(C)(C)C)C(=O)O` (centres unmarked) [Example 72] belongs below 6.00; to `Cc1nc2cc(-c3ccccc3)nn2c(-c2cccc3cnccc23)c1C(OC(C)(C)C)C(=O)O` (centres unmarked) [Example 73], below 6.00.
Same read-out and setting: to `Cc1nc2cc(-c3ccccc3)nn2c(-c2ccc3nccnc3c2)c1C(OC(C)(C)C)C(=O)O` (centres unmarked) [Example 74] belongs below 6.00; to `Cc1nc2cc(-c3ccccc3)nn2c(-c2ccc(N(C)C)cc2)c1C(OC(C)(C)C)C(=O)O` (centres unmarked) [Example 75], below 6.00; to `Cc1nc2cc(-c3ccccc3)nn2c(-c2ccc3cn[nH]c3c2)c1C(OC(C)(C)C)C(=O)O` (centres unmarked) [Example 76], below 6.00.
On to `Cc1ccc(-c2c(C(OC(C)(C)C)C(=O)O)c(C)nc3cc(-c4ccccc4)nn23)cn1` (centres unmarked) [Example 77], for which the pEC50 is below 6.00.
The same measure, in the same setting: the value for `Cc1nc2cc(-c3ccccc3)nn2c(-c2cnc3[nH]ccc3c2)c1C(OC(C)(C)C)C(=O)O` (centres unmarked) [Example 78] was below 6.00; that for `Cc1nc2cc(-c3ccccc3)nn2c(-c2ccc3ccncc3c2)c1C(OC(C)(C)C)C(=O)O` (centres unmarked) [Example 79] was below 6.00; that for `Cc1nc2cc(-c3ccccc3)nn2c(-c2cccc3cn[nH]c23)c1C(OC(C)(C)C)C(=O)O` (centres unmarked) [Example 80] was below 6.00.
Still for that read-out and setting: to `Cc1nc2cc(-c3ccccc3)nn2c(-c2ccc(Cl)cc2Cl)c1C(OC(C)(C)C)C(=O)O` (centres unmarked) [Example 81] belongs below 6.00; to `Cc1nc2cc(-c3ccccc3)nn2c(-c2ccc(F)c(Cl)c2)c1C(OC(C)(C)C)C(=O)O` (centres unmarked) [Example 82], below 6.00.
On the same count and under the same terms, the value for `Cc1nc2cc(-c3ccccc3)nn2c(-c2ccc(F)c(F)c2)c1C(OC(C)(C)C)C(=O)O` (centres unmarked) [Example 83] was below 6.00; that for `Cc1nc2cc(-c3ccccc3)nn2c(-c2ccc(Cl)c(Cl)c2)c1C(OC(C)(C)C)C(=O)O` (centres unmarked) [Example 84] was below 6.00; that for `Cc1nc2cc(-c3ccccc3)nn2c(-c2cccc(Cl)c2Cl)c1C(OC(C)(C)C)C(=O)O` (centres unmarked) [Example 85] was below 6.00.
`Cc1nc2cc(-c3ccccc3)nn2c(-c2ccc(Cl)c(F)c2)c1C(OC(C)(C)C)C(=O)O` (centres unmarked) [Example 86]: the pEC50 is below 6.00.
On the same count and under the same terms, to `Cc1nc2cc(-c3ccccc3)nn2c(-c2ccc(C)c3ccccc23)c1C(OC(C)(C)C)C(=O)O` (centres unmarked) [Example 87] belongs below 6.00.
As for `COc1ccc(-c2c(C(OC(C)(C)C)C(=O)O)c(C)nc3cc(-c4ccccc4)nn23)cc1C` (centres unmarked) [Example 88], the pEC50 was below 6.00.
Same read-out and setting: the value for `Cc1nc2cc(-c3ccccc3)nn2c(-c2ccc3c(c2)OCCCO3)c1C(OC(C)(C)C)C(=O)O` (centres unmarked) [Example 89] was below 6.00.
With `Cc1nc2cc(-c3ccccc3)nn2c(-c2ccc(F)cc2Cl)c1C(OC(C)(C)C)C(=O)O` (centres unmarked) [Example 90], the pEC50 was below 6.00.
For `Cc1ccc(-c2c(C(OC(C)(C)C)C(=O)O)c(C)nc3cc(-c4ccccc4)nn23)c(C)c1` (centres unmarked) [Example 91], the pEC50 was below 6.00.
On the same count and under the same terms, to `COc1ccc(-c2cc3nc(C)c(C(OC(C)(C)C)C(=O)O)c(-c4cc(F)c5c(c4C)CCCO5)n3n2)cc1` (centres unmarked) [Example 92, 2-tert-Butoxy-2-(7-(8-fluoro-5-methylchroman-6-yl)-2-(4-methoxyphenyl)-5-methylpyrazolo[1,5-a]pyrimidin-6-yl)acetic acid, TFA salt] belongs 6.00 to 7.00.
Turning to `Cc1nc2cc(-c3cccc(OCc4ccccc4)c3)nn2c(-c2cc(F)c3c(c2C)CCCO3)c1C(OC(C)(C)C)C(=O)O` (centres unmarked) [Example 93, 2-(2-(3-(Benzyloxy)phenyl)-7-(8-fluoro-5-methylchroman-6-yl)-5-methylpyrazolo[1,5-a]pyrimidin-6-yl)-2-tert-butoxyacetic acid, TFA salt], the pEC50 was above 7.00.
With `Cc1nc2cc(-c3cccc(OCc4ccccc4)c3)nn2c(-c2cc(F)c3c(c2C)CCCO3)c1[C@H](OC(C)(C)C)C(=O)O` [Example 94, (2S)-2-(2-(3-(Benzyloxy)phenyl)-7-(8-fluoro-5-methylchroman-6-yl)-5-methyl-pyrazolo[1,5-a]pyrimidin-6-yl)-2-tert-butoxyacetic acid], the pEC50 is above 7.00.
The same measure, in the same setting: the value for `Cc1nc2cc(-c3ccc(OCc4ccccc4)cc3)nn2c(-c2cc(F)c3c(c2C)CCCO3)c1C(OC(C)(C)C)C(=O)O` (centres unmarked) [Example 95, 2-(2-(4-(Benzyloxy)phenyl)-7-(8-fluoro-5-methylchroman-6-yl)-5-methylpyrazolo[1,5-a]pyrimidin-6-yl)-2-tert-butoxyacetic acid, TFA salt] was above 7.00.
Same read-out and setting: the value for `Cc1nc2cc(-c3ccc(Cl)cc3)nn2c(-c2cc(F)c3c(c2C)CCCO3)c1C(OC(C)(C)C)C(=O)O` (centres unmarked) [Example 96, 2-tert-Butoxy-2-(2-(4-chlorophenyl)-7-(8-fluoro-5-methylchroman-6-yl)-5-methylpyrazolo[1,5-a]pyrimidin-6-yl)acetic acid, TFA salt] was 6.00 to 7.00; that for `Cc1nc2cc(-c3cccc(Oc4ccccc4)c3)nn2c(-c2cc(F)c3c(c2C)CCCO3)c1C(OC(C)(C)C)C(=O)O` (centres unmarked) [Example 97, 2-tert-Butoxy-2-(7-(8-fluoro-5-methylchroman-6-yl)-5-methyl-2-(3-phenoxyphenyl)pyrazolo[1,5-a]pyrimidin-6-yl)acetic acid, TFA salt] was above 7.00.
Consider `Cc1ccccc1-c1cc2nc(C)c(C(OC(C)(C)C)C(=O)O)c(-c3cc(F)c4c(c3C)CCCO4)n2n1` (centres unmarked) [Example 98, 2-tert-Butoxy-2-(7-(8-fluoro-5-methylchroman-6-yl)-5-methyl-2-o-tolylpyrazolo[1,5-a]pyrimidin-6-yl)acetic acid, TFA salt], for which the pEC50 is below 6.00.
Same read-out and setting: the value for `COc1cccc(-c2cc3nc(C)c(C(OC(C)(C)C)C(=O)O)c(-c4cc(F)c5c(c4C)CCCO5)n3n2)c1` (centres unmarked) [Example 99, 2-tert-Butoxy-2-(7-(8-fluoro-5-methylchroman-6-yl)-2-(3-methoxyphenyl)-5-methylpyrazolo[1,5-a]pyrimidin-6-yl)acetic acid] was 6.00 to 7.00.
Take `CCc1ccc(-c2cc3nc(C)c(C(OC(C)(C)C)C(=O)O)c(-c4cc(F)c5c(c4C)CCCO5)n3n2)cc1` (centres unmarked) [Example 100, 2-tert-Butoxy-2-(2-(4-ethylphenyl)-7-(8-fluoro-5-methylchroman-6-yl)-5-methylpyrazolo[1,5-a]pyrimidin-6-yl)acetic acid, TFA salt]: the pEC50 is 6.00 to 7.00.
In the case of `Cc1nc2cc(-c3cccc(OCc4ccc(F)cc4)c3)nn2c(-c2cc(F)c3c(c2C)CCCO3)c1C(OC(C)(C)C)C(=O)O` (centres unmarked) [Example 101, 2-tert-Butoxy-2-(7-(8-fluoro-5-methylchroman-6-yl)-2-(3-(4-fluorobenzyloxy)phenyl)-5-methylpyrazolo[1,5-a]pyrimidin-6-yl)acetic acid, TFA salt], the pEC50 was above 7.00.
The same measure, in the same setting: to `Cc1nc2cc(-c3cccc(OCc4ccccc4Cl)c3)nn2c(-c2cc(F)c3c(c2C)CCCO3)c1C(OC(C)(C)C)C(=O)O` (centres unmarked) [Example 102, 2-tert-Butoxy-2-(2-(3-(2-chlorobenzyloxy)phenyl)-7-(8-fluoro-5-methylchroman-6-yl)-5-methylpyrazolo[1,5-a]pyrimidin-6-yl)acetic acid, TFA salt] belongs above 7.00; to `COc1ccc(COc2cccc(-c3cc4nc(C)c(C(OC(C)(C)C)C(=O)O)c(-c5cc(F)c6c(c5C)CCCO6)n4n3)c2)cc1` (centres unmarked) [Example 103, 2-tert-Butoxy-2-(7-(8-fluoro-5-methylchroman-6-yl)-2-(3-(4-methoxybenzyloxy)phenyl)-5-methylpyrazolo[1,5-a]pyrimidin-6-yl)acetic acid, TFA salt], above 7.00.

The same assay, now with this note: NL43, 120 h, read-out: EC50 μM.
Consider `Cc1nc2cc(-c3ccccc3)nn2c(-c2ccc(C(C)C)cc2)c1C(OC(C)(C)C)C(=O)O` (centres unmarked) [Example 57], for which the EC50 was 1.7 µM.
On the same count and under the same terms, to `CSc1ccc(-c2c(C(OC(C)(C)C)C(=O)O)c(C)nc3cc(-c4ccccc4)nn23)cc1` (centres unmarked) [Example 58] belongs 3.1 µM; to `Cc1ccc(F)c(-c2c(C(OC(C)(C)C)C(=O)O)c(C)nc3cc(-c4ccccc4)nn23)c1` (centres unmarked) [Example 62], 5 µM; to `Cc1nc2cc(-c3cccc(OCc4ccccc4)c3)nn2c(-c2cc(F)c3c(c2C)CCCO3)c1C(OC(C)(C)C)C(=O)O` (centres unmarked) [Example 93, 2-(2-(3-(Benzyloxy)phenyl)-7-(8-fluoro-5-methylchroman-6-yl)-5-methylpyrazolo[1,5-a]pyrimidin-6-yl)-2-tert-butoxyacetic acid, TFA salt], 0.1 µM.
Same read-out and setting: to `Cc1nc2cc(-c3cccc(Oc4ccccc4)c3)nn2c(-c2cc(F)c3c(c2C)CCCO3)c1C(OC(C)(C)C)C(=O)O` (centres unmarked) [Example 97, 2-tert-Butoxy-2-(7-(8-fluoro-5-methylchroman-6-yl)-5-methyl-2-(3-phenoxyphenyl)pyrazolo[1,5-a]pyrimidin-6-yl)acetic acid, TFA salt] belongs 0.06 µM.
On the same count and under the same terms, the value for `COc1cccc(-c2cc3nc(C)c(C(OC(C)(C)C)C(=O)O)c(-c4cc(F)c5c(c4C)CCCO5)n3n2)c1` (centres unmarked) [Example 99, 2-tert-Butoxy-2-(7-(8-fluoro-5-methylchroman-6-yl)-2-(3-methoxyphenyl)-5-methylpyrazolo[1,5-a]pyrimidin-6-yl)acetic acid] was 0.35 µM.
